Experiments:
[1] = biological target: T1, ERK1 (Homo sapiens, UniProt P27361); assay: ERK1 HTRF (biochemical) assay; conditions: HTRF
T1 construct: purchased Jubilant Biosys
Method: (§1) ERK1 and ERK2 HTRF (Biochemical) Assays
These assays employed a homogeneous time resolved fluorescence (HTRF) technique. […] The plate was incubated at room temperature for 60 min with shaking. […] The IC50 values (half maximal inhibitory concentration values) were subsequently determined using a sigmoidal dose-response curve (variable slope) in GraphPad Prism® 5 software.

[2] = biological target: T2, ERK2 (Homo sapiens, UniProt P28482); assay: ERK2 HTRF (biochemical) assay; conditions: HTRF
T2 construct: purchased Jubilant Biosys
Method: as §1
These assays employed a homogeneous time resolved fluorescence (HTRF) technique. The compounds were serially diluted by half-log with concentrations ranging from 0.0005 to 10 uM in the assay buffer (50 mM Tris pH=7.5, 1 mM EGTA, 2 mM DTT, 10 mM MgCl2, 0.1% Tween-20) and 20 uL of substrate-ATP mix [1 uM Biotin-LC-Myelin Basic Protein (MBP) derivatized Peptide (Anaspec)-24 uM ATP (Sigma)] was added to each well of the assay plate. Then 10 uL of enzyme mix [25 nM ERK1 or ERK2 (Jubilant Biosys) in assay buffer] was added to each well. The plate was incubated at room temperature for 60 min with shaking. The HTRF mix [625 nM LANCE® Ultra Europium-anti-phospho-MBP (Perkin Elmer) and 2 nM Phycolink® Streptavidin-Allophycocyanin (SA-APC) (Prozyme) in HTRF buffer (50 mM Tris-HCl pH=7.5, 100 mM NaCl, 0.1% BSA, 0.05% Tween20, 0.5 mM EDTA)] was prepared and 75 uL of this mix was added to the HTRF plate. After incubation for 60 min at room temperature, 10 uL of the reaction mixture was transferred to the HTRF assay plate and incubated for 45 min at room temperature with shaking. Plate was read using Pherastar in HTRF mode (excitation 337 nm, emission 665 & 620 nm). The IC50 values (half maximal inhibitory concentration values) were subsequently determined using a sigmoidal dose-response curve (variable slope) in GraphPad Prism® 5 software.

T2 sequence (P28482 whole entry): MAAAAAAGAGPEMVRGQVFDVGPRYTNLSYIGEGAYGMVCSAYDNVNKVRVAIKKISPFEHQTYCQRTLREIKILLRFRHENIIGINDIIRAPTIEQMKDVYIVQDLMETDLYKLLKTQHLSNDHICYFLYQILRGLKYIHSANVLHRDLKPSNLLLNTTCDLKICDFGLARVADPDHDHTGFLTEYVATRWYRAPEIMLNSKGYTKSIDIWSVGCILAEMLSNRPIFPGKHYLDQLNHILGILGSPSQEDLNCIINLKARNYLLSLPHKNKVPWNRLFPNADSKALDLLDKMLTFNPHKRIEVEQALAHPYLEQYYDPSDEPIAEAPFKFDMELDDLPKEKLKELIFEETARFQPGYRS
T1 sequence (P27361 whole entry): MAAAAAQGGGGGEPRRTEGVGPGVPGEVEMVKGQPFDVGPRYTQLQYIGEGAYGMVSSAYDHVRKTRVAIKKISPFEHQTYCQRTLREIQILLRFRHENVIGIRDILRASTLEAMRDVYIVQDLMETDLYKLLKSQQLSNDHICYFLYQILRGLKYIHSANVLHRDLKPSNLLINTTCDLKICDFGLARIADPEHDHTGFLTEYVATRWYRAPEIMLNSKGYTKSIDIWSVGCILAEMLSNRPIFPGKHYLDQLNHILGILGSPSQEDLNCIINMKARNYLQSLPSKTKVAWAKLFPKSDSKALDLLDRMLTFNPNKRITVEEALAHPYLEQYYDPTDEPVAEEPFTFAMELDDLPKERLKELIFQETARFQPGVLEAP

Row | IC50 [1] | IC50 [2] | Structure (SMILES)
1 | > 2500 nM | > 2500 nM | Cc1cnc(Nc2ccccc2Cl)nc1-n1cc(NC(=O)NC(CO)c2cccc(Cl)c2)cn1 (stereo not shown) [Compound 43, 1-(1-(3-chlorophenyl)-2-hydroxyethyl)-3-(1-(2-((2-chloro-phenyl)amino)-5-methylpyrimidin-4-yl)-1H-pyrazol-4-yl)urea]
2 | < 50 nM | ≤ 50 nM | Cc1cnc(N[C@H]2CC[C@H](O)CC2)nc1-n1cnc(C(=O)N[C@H](CO)c2cccc(Cl)c2)c1 [Compound 242, N-((S)-1-(3-chlorophenyl)-2-hydroxyethyl)-1-(2-(((1r,4S)-4-hydroxycyclohexyl)amino)-5-methyl-pyrimidin-4-yl)-1H-imidazole-4-carboxamide]
3 | < 50 nM | ≤ 50 nM | Cc1cnc(NC2CCOCC2)nc1-n1cnc(C(=O)N[C@H](CNCc2ccc[nH]2)c2cccc(Cl)c2)c1 [Example 306, (S)-N-(2-(((1H-pyrrol-2-yl)-methyl)amino)-1-(3-chlorophenyl)-ethyl)-1-(5-methyl-2-((tetrahydro-2H-pyran-4-yl)amino)-pyrimidin-4-yl)-1H-imidazole-4-carboxamide]
4 | < 50 nM | ≤ 50 nM | O=C(NC(CO)c1cccc(Cl)c1)c1ccn(-c2ccnc(Nc3ccc4c(c3)OC(F)(F)O4)n2)c1 (stereo not shown) [Compound 176, N-(1-(3-chloro-phenyl)-2-hydroxyethyl)-1-(2-((2,2-difluoro-benzo[d][1,3]dioxol-5-yl)amino)-pyrimidin-4-yl)-1H-pyrrole-3-carboxamide]
5 | < 50 nM | ≤ 50 nM | Cc1cnc(NC2CCCN(C)C2)nc1-n1ccc(C(=O)NC(CO)c2cccc(Cl)c2)c1 (stereo not shown) [Compound 199, N-(1-(3-chloro-phenyl)-2-hydroxy-ethyl)-1-(5-methyl-2-((1-methyl-piperidin-3-yl)-amino)pyrimidin-4-yl)-1H-pyrrole-3-carboxamide]
6 | 50 to 100 nM | ≤ 50 nM | Cc1cnc(Nc2ccc3c(c2)OC(C)(C)O3)nc1-n1ccc(C(=O)NC(CO)c2ccccc2)c1 (stereo not shown) [Compound 95, 1-(2-((2,2-dimethylbenzo[d] [1,3]dioxol-5-yl)-amino)-5-methyl-pyrimidin-4-yl)-N-(2-hydroxy-1-phenylethyl)-1H-pyrrole-3-carboxamide]
7 | 100 to 500 nM | ≤ 50 nM | Cc1cnc(Nc2ccc(N3CCNCC3)cc2)cc1-n1ccc(C(=O)NC(CO)c2ccccc2)c1 (stereo not shown) [Compound 83, N-(2-hydroxy-1-phenylethyl)-1-(5-methyl-2-((4-(piperazin-1-yl)-phenyl)amino)-pyridin-4-yl)-1H-pyrrole-3-carboxamide]
8 | < 50 nM | ≤ 50 nM | Cc1cnc(Nc2cccnc2)nc1-n1cc(NC(=O)N[C@H](CO)c2cccc(Cl)c2)cn1 [Compound 23, (S)-1-(1-(3-chlorophenyl)-2-hydroxyethyl)-3-(1-(5-methyl-2-(pyridin-3-yl-amino)pyrimidin-4-yl)-1H-pyrazol-4-yl)urea]
9 | < 50 nM | ≤ 50 nM | Cc1cnc(NC2CCN(C)CC2)nc1-n1cnc(C(=O)N[C@H](CO)c2cccc(Cl)c2)c1 [Example 296, (S)-N-(1-(3-chlorophenyl)-2-hydroxyethyl)-1-(5-methyl-2-((1-methylpiperidin-4-yl)amino)-pyrimidin-4-yl)-1H-imidazole-4-carboxamide]
10 | 100 to 500 nM | ≤ 50 nM | Cc1cnc(Nc2ccc3occc3c2)cc1-n1ccc(C(=O)NC(CO)c2ccccc2)c1 (stereo not shown) [Compound 79, 1-(2-(benzofuran-5-ylamino)-5-methylpyridin-4-yl)-N-(2-hydroxy-1-phenylethyl)-1H-pyrrole-3-carboxamide]
11 | < 50 nM | ≤ 50 nM | Cc1cnc(Nc2ccc3c(c2)OC(F)(F)O3)nc1-n1ccc(C(=O)N[C@H](CO)c2ccc(F)c(Cl)c2)c1 [Compound 69, (S)-N-(1-(3-chloro-4-fluorophenyl)-2-hydroxyethyl)-1-(2-((2,2-difluoro-benzo[d][1,3]dioxol-5-yl)amino)-5-methylpyrimidin-4-yl)-1H-pyrrole-3-carboxamide]
12 | < 50 nM | ≤ 50 nM | Cc1cnc(Nc2ccc3c(c2)OC(F)(F)O3)nc1-n1ccc(C(=O)NC(CO)c2cccc(Cl)c2)c1 (stereo not shown) [Compound 62, N-(1-(3-chloro-phenyl)-2-hydroxyethyl)-1-(2-((2,2-difluoro-benzo[d][1,3]dioxol-5-yl)amino)-5-methylpyrimidin-4-yl)-1H-pyrrole-3-carboxamide]
13 | < 50 nM | ≤ 50 nM | Cc1cnc(N[C@H]2CCOC2)nc1-n1ccc(C(=O)N(C)C(CO)c2cccc(Cl)c2)c1 (stereo partly drawn) [Compound 212, N-(1-(3-chlorophenyl)-2-hydroxyethyl)-N-methyl-1-(5-methyl-2-(((S)-tetrahydrofuran-3-yl)amino)-pyrimidin-4-yl)-1H-pyrrole-3-carboxamide]
14 | < 50 nM | ≤ 50 nM | Cc1cnc(Nc2ccc3c(c2)OCO3)cc1-n1cnc(C(=O)NC(CO)c2cccc(Cl)c2)c1 (stereo not shown) [Compound 88, 1-(2-(benzo[d][1,3]dioxol-5-ylamino)-5-methylpyridin-4-yl)-N-(1-(3-chloro-phenyl)-2-hydroxy-ethyl)-1H-imidazole-4-carboxamide]
15 | < 50 nM | ≤ 50 nM | Cc1cnc(NC2CCOCC2)nc1-n1cnc(C(=O)NC(CO)c2cccs2)c1 (stereo not shown) [Compound 233, N-(2-hydroxy-1-(thiophen-2-yl)ethyl)-1-(5-methyl-2-((tetrahydro-2H-pyran-4-yl)amino)-pyrimidin-4-yl)-1H-imidazole-4-carboxamide]
16 | < 50 nM | ≤ 50 nM | Cc1cnc(N[C@@H]2CCOC2)nc1-n1ccc(C(=O)N[C@H](CO)c2cccc(Cl)c2)c1 [Compound 162, N-((S)-1-(3-chlorophenyl)-2-hydroxyethyl)-1-(5-methyl-2-(((R)-tetrahydrofuran-3-yl)amino)pyrimidin-4-yl)-1H-pyrrole-3-carboxamide]
17 | < 50 nM | ≤ 50 nM | Cc1cnc(Nc2ccc(F)cc2)cc1-n1ccc(C(=O)NC(CN)c2ccc(F)c(Cl)c2)c1 (stereo not shown) [Compound 164, N-(2-amino-1-(3-chloro-4-fluoro-phenyl)ethyl)-1-(2-((4-fluorophenyl)-amino)-5-methyl-pyridin-4-yl)-1H-pyrrole-3-carboxamide]
18 | < 50 nM | ≤ 50 nM | Cc1cnc(Nc2ccc3c(c2)OCC3)nc1-n1ccc(C(=O)NC(CO)c2ccccc2)c1 (stereo not shown) [Compound 185]
19 | 50 to 100 nM | 50 to 100 nM | O=C(Nc1cnn(-c2ccnc(Nc3ccccc3Cl)n2)c1)N[C@H](CO)c1ccccc1 [Compound 7, (S)-1-(1-(2-((2-chlorophenyl)amino)pyrimidin-4-yl)-1H-pyrazol-4-yl)-3-(2-hydroxy-1-phenylethyl)urea]
20 | < 50 nM | ≤ 50 nM | COC[C@@H](NC(=O)c1ccn(-c2nc(Nc3ccc4c(c3)OCO4)ncc2C)c1)c1ccccc1 [Compound 64, (S)-1-(2-(benzo[d][1,3]dioxol-5-ylamino)-5-methylpyrimidin-4-yl)-N-(2-methoxy-1-phenylethyl)-1H-pyrrole-3-carboxamide]
21 | < 50 nM | ≤ 50 nM | CC[C@@H](CO)Nc1ncc(C)c(-n2ccc(C(=O)NC(CO)c3ccccc3)c2)n1 (stereo partly drawn) [Compound 75, N-(2-hydroxy-1-phenylethyl)-1-(2-(((S)-1-hydroxy-butan-2-yl)amino)-5-methylpyrimidin-4-yl)-1H-pyrrole-3-carboxamide]
22 | < 50 nM | ≤ 50 nM | Cc1cnc(Nc2ccc3c(c2)OC(F)(F)O3)cc1-n1ccc(C(=O)NC(CO)c2ccccc2)c1 (stereo not shown) [Compound 80, 1-(2-((2,2-difluorobenzo[d] [1,3]dioxol-5-yl)-amino)-5-methyl-pyridin-4-yl)-N-(2-hydroxy-1-phenyl-ethyl)-1H-pyrrole-3-carboxamide]
23 | < 50 nM | ≤ 50 nM | Cc1cnc(NC2CCNCC2)nc1-n1cnc(C(=O)NC(CO)c2cccc(Cl)c2)c1 (stereo not shown) [Compound 214, N-(1-(3-chlorophenyl)-2-hydroxyethyl)-1-(5-methyl-2-(piperidin-4-ylamino)pyrimidin-4-yl)-1H-imidazole-4-carboxamide]
24 | < 50 nM | ≤ 50 nM | Cc1cnc(Nc2ccc3c(c2)OC(F)(F)O3)cc1-n1ccc(C(=O)NC(CO)c2cccc(Cl)c2)c1 (stereo not shown) [Compound 92, N-(1-(3-chlorophenyl)-2-hydroxyethyl)-1-(2-((2,2-difluoro-benzo[d][1,3]dioxol-5-yl)amino)-5-methylpyridin-4-yl)-1H-pyrrole-3-carboxamide]
25 | < 50 nM | ≤ 50 nM | CCC(C)Nc1ncc(C)c(-n2ccc(C(=O)N[C@H](CO)c3ccc(F)c(Cl)c3)c2)n1 (stereo partly drawn) [Compound 197, 1-(2-(sec-butylamino)-5-methylpyrimidin-4-yl)-N-((S)-1-(3-chloro-4-fluoro-phenyl)-2-hydroxy-ethyl)-1H-pyrrole-3-carboxamide]

Row | Structure (SMILES) | IC50 [1] | IC50 [2]
26 | O=C(Nc1cnn(-c2ccnc(NC3CC3)n2)c1)N[C@H](CO)c1cccc(Cl)c1 [Compound 6, (S)-1-(1-(3-chlorophenyl)-2-hydroxyethyl)-3-(1-(2-(cyclopropyl-amino)pyrimidin-4-yl)-1H-pyrazol-4-yl)urea] | < 50 nM | ≤ 50 nM
